Measurements: ChEMBL document CHEMBL1201862, “PubChem BioAssay data set” (2004)
Activity calls are given as the source filed them.

What was measured:
[1] = PAX8-dependent cell viability loss – plate reader, dry powder, dose response (AID 743049); type: functional, cell-based
[2] = target: Paired box protein Pax-8 (Homo sapiens, UniProt Q06710); assay: PAX8 transcriptional activity inhibition in RMG-I – RMG-I cells, luciferase, cherry-pick, dose response (AID 687027); type: functional, cell-based;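 further: luciferase reporter driven by Pax8 target thyroperoxidase promoter measured by SteadyGlo luminescence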
Chain of Paired box protein Pax-8 (Q06710 whole entry): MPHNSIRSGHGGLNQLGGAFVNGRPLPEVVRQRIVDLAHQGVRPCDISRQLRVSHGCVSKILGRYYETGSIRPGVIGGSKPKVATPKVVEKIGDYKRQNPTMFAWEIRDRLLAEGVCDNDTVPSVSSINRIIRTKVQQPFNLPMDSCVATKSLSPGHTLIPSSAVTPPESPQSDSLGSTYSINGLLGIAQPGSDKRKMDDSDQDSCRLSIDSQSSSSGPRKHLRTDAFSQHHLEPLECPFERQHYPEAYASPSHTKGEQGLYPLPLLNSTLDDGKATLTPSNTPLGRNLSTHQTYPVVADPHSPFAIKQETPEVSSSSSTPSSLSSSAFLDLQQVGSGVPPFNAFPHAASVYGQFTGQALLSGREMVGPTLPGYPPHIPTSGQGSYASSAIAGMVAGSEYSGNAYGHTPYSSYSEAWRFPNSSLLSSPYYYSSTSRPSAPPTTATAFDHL

[3] = tested on: H4; assay: Luminescence Cell-Based Dose Response HTS to Identify Activators of 5'UTR Stem-Loop Driven Prion Protein mRNA Translation in H4 Neuroglioblastoma Cells. [Related pubchem assays: 1829 (Project Summary), 1814 (Primary HTS)]; type: functional; conditions: Homo sapiens
[4] = target: T1, Replicative DNA helicase DnaB (Mycobacterium tuberculosis, UniProt P9WMR3); assay: DnaB intein splicing inhibitors, dose response, biochemical, cell-free fluorescence (AID 449749); type: functional
T1 sequence (P9WMR3 whole entry): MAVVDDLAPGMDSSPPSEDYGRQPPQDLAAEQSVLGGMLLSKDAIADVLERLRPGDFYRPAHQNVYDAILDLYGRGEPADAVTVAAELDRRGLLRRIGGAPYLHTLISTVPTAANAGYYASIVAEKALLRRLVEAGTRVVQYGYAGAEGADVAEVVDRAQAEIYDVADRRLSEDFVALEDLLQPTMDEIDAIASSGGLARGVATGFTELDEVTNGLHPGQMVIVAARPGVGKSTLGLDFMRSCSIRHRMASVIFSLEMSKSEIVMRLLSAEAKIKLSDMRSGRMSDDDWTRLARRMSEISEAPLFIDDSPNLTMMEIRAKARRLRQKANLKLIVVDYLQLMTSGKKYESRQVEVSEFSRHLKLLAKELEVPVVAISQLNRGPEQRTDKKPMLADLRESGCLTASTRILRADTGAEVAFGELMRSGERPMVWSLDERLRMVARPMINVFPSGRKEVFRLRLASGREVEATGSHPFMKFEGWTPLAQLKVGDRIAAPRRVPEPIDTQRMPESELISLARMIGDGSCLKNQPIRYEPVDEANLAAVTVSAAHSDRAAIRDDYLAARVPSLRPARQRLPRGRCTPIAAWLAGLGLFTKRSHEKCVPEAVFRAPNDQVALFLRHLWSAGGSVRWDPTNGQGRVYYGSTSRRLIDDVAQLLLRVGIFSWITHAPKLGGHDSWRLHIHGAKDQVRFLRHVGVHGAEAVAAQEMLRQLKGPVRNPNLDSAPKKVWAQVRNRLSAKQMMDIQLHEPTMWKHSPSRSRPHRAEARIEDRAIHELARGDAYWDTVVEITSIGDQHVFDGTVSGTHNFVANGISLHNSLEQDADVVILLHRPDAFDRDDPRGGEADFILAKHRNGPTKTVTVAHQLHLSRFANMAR

[5] = viability loss of HPDE-C7K cells – cell-based, fluorescence, HTS, primary screen (AID 431); type: functional; conditions: Homo sapiens
[6] = A2780 cell killing – plate reader, dry powder samples, cytotoxicity control, dose response (AID 743046); type: functional, cell-based
[7] = PAX5 cellular inhibition readout – cell-based, plate reader, dry powder samples, selectivity assay for PAX8 inhibitor project, dose response (AID 743047); type: functional;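 further: HEK293 cells carrying a Pax5 driven CD19 promoter luciferase reporter; potency of inhibitors that lower reporter luminescence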
[8] = IGROV1 cell killing – plate reader, dry powder samples, PAX8 inhibitor project, dose response (AID 743043); type: functional, cell-based; conditions: IGROV-1
[9] = target: T2, Microphthalmia-associated transcription factor (Homo sapiens, UniProt O75030); assay: reducers of TRPM1 reporter luminescence, concentration series – cell-based, SK-MEL-5, cherry-picked, set 3, MITF inhibitor project, dose response (AID 493073); type: functional;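 further: SK-MEL-5 melanoma cells with luciferase driven by the MITF target TRPM1 promoter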
T2 sequence (O75030 whole entry): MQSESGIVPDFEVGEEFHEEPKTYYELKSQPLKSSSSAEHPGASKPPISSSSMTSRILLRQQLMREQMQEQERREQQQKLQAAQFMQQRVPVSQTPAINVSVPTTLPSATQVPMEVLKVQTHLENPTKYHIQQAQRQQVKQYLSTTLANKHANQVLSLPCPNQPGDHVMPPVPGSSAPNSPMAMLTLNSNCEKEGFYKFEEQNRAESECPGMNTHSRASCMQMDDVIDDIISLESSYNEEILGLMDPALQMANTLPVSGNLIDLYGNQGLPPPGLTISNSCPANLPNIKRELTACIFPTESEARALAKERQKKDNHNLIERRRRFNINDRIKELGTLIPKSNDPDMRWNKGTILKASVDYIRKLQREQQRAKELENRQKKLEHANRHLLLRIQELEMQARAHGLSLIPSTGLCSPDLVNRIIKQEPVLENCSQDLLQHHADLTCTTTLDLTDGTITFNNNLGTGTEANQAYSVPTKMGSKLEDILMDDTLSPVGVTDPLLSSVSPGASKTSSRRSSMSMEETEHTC

[10] = HPDE-C7 pancreatic duct cell viability loss – fluorescence, HTS (AID 430); type: functional, cell-based; conditions: Homo sapiens
[11] = tested on: A-375; assay: proliferation inhibition in MITF-low A375 cells – cell-based, cherry-pick samples, set 2, counter-screen for MITF modulator project, dose response (AID 540335); type: functional; conditions: Homo sapiens
[12] = tested on: A-375; assay: MITF: Counter assay: A375 proliferation Measured in Cell-Based System Using Plate Reader - 2084-03_Inhibitor_Dose_DryPowder_Activity. [Related pubchem assays (depositor defined):AID488944]; type: functional; conditions: Homo sapiens
[13] = Luminescence Cell-Based Dose Response HTS to Identify Activators of Luciferase Translation or Activity in H4 […] Cells. [Related pubchem assays: 1829 (Project Summary), 1814 (Primary HTS)]; type: functional
[14] = target: T3, Protein RecA (Mycobacterium tuberculosis, UniProt P9WHJ3); assay: Fluorescence Cell-Free Homogeneous Dose Retest to Identify Inhibitors of RecA-Intein Splicing Activity. [Related pubchem assays (depositor defined):AID2097, AID2223, AID489010, AID492950]; type: functional
T3 sequence (P9WHJ3 whole entry): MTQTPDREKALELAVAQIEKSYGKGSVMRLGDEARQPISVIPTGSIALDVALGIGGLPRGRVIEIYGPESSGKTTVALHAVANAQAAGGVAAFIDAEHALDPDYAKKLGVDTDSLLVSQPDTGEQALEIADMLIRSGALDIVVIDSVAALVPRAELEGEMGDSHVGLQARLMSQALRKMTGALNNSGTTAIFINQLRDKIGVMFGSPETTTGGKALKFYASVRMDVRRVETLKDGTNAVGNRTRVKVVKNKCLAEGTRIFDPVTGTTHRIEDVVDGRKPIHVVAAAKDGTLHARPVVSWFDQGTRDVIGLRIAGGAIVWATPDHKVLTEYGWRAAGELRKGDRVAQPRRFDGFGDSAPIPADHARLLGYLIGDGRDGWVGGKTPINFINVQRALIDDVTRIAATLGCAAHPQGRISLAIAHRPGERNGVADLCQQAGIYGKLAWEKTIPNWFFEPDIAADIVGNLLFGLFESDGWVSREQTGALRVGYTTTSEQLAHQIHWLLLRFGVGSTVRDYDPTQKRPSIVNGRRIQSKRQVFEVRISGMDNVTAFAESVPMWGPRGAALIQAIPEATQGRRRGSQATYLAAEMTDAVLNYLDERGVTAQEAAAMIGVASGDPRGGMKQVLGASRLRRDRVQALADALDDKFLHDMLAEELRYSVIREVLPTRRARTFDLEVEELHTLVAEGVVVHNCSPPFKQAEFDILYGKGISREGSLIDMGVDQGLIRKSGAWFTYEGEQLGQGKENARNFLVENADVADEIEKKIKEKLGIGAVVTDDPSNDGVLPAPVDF

[15] = inhibitors acting on PAX2 in cells – cell-based, plate reader, dry powder samples, selectivity assay for PAX8 inhibitor project, dose response (AID 743048); type: functional;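 further: HEK293 cells carrying a WT1 promoter luciferase reporter driven by expressed Pax2; potency is for inhibition of Pax2 driven reporter signal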
[16] = COV434 cell viability loss – plate reader, dry powder, SA7, cytotoxicity control for PAX8 inhibitor project, dose response (AID 743145); type: functional, cell-based
[17] = OVCAR4 cell viability loss – plate reader, dry powder, SA11, cytotoxicity control for PAX8 inhibitor project, dose response (AID 743150); type: functional, cell-based; conditions: OVCAR-4
[18] = COV362 cell viability loss – plate reader, dry powder, SA12, cytotoxicity control for PAX8 inhibitor project, dose response (AID 743144); type: functional, cell-based
[19] = OV-90 cell viability loss – plate reader, dry powder, SA8, PAX8 inhibitor project, dose response (AID 743149); type: functional, cell-based
[20] = toxicity toward immortalized ovarian surface epithelium – cell-based, plate reader, dry powder samples, cytotoxicity control for PAX8 inhibitor project, dose response (AID 743045); type: functional
[21] = target: T4, Hexokinase HKDC1 (Homo sapiens, UniProt Q2TB90); assay: analog inhibition of human HKDC1 activity – biochemical, set 2, SAR follow-up (AID 588355); type: functional
T4 sequence (Q2TB90 whole entry): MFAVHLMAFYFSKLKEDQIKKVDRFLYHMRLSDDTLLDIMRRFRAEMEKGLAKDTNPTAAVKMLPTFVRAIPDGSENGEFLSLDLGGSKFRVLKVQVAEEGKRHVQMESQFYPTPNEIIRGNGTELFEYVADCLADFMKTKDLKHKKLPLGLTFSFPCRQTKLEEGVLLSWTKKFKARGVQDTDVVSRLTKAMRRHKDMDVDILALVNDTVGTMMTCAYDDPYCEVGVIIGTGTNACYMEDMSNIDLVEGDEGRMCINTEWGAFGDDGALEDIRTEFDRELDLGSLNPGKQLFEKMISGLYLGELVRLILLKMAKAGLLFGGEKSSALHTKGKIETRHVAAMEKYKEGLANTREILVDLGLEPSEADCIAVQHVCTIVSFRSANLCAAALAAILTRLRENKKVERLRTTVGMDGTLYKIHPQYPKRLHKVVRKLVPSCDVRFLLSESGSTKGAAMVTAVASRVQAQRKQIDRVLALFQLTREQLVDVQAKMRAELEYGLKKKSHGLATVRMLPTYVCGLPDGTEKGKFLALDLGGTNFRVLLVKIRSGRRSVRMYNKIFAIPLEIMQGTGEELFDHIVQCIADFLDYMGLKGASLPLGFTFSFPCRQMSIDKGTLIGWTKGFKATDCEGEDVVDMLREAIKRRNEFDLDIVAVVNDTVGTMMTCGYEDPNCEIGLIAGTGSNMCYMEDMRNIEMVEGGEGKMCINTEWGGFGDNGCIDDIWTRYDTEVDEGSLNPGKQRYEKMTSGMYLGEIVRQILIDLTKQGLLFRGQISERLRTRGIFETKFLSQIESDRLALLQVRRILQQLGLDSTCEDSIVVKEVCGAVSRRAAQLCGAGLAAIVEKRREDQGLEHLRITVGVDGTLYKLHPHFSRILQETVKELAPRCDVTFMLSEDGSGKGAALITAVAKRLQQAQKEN

[22] = target: T5, Hexokinase-1 (Homo sapiens, UniProt P19367); assay: hexokinase 1 activity inhibitors, potency – biochemical, set 2, resazurin fluorescence coupled readout, selectivity assay for HKDC1 inhibitor project, SAR follow-up (AID 588356); type: functional
T5 sequence (P19367 whole entry): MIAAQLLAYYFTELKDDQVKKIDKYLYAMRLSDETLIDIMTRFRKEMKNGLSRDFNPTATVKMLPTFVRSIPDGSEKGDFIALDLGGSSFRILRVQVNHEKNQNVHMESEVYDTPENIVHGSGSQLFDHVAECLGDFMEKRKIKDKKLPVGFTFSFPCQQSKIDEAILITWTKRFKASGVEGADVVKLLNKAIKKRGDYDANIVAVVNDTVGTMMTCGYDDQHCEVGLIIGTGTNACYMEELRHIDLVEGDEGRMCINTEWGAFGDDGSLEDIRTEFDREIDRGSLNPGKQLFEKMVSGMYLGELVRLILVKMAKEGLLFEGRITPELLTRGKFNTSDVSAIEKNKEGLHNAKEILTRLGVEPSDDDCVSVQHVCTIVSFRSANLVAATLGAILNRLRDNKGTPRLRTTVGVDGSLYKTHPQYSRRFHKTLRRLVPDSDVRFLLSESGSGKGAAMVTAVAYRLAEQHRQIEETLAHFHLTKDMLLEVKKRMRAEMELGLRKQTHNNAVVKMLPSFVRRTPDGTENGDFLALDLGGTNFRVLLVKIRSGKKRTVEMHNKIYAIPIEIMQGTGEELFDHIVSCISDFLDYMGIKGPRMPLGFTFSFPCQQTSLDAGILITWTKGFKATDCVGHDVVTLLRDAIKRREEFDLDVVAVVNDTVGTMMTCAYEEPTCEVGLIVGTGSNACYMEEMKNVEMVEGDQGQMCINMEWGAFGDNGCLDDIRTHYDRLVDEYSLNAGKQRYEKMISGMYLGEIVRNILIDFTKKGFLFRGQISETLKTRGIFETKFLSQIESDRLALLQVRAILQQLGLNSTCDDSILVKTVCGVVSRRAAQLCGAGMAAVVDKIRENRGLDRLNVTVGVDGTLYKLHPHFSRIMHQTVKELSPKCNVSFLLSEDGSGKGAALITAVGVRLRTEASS

[23] = target: Cytochrome P450 2D6 (Homo sapiens, UniProt P10635);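 further: CYP2D6 member of a cytochrome P450 panel assay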
Chain of Cytochrome P450 2D6 (P10635 whole entry): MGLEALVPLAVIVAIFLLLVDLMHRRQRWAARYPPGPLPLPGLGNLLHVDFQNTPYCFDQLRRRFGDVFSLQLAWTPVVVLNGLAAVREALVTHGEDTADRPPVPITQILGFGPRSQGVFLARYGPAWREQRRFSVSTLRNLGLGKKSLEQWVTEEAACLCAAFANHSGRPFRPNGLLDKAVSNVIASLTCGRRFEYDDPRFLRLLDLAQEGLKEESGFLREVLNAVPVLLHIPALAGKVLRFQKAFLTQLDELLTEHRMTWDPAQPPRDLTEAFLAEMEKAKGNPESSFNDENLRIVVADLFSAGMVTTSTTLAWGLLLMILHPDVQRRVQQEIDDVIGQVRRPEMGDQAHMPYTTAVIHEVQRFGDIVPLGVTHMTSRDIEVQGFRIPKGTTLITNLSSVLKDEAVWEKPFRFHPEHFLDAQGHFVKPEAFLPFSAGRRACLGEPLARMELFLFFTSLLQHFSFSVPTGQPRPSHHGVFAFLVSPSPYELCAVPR

[24] = tested on: HeLa; assay: ATP-based viability loss in HeLa cells – cell-based, CellTiter-Glo luminescence, cherry-pick samples, cytotoxicity control for MITF activator project, dose response (AID 540259); type: functional; conditions: Homo sapiens
[25] = viability loss of HMLE_sh_eGFP cells – cell-based, luminescence, counter-screen for HMLE_sh_ECad selective toxicity project, dose response (AID 463074); type: functional, Homo sapiens;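 further: HMLE human mammary epithelial cells expressing control shRNA against eGFP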
[26] = Luminescence Cell-Based Dose Retest to Confirm Inhibitors of Cancer Stem Cells. [Related pubchem assays (depositor defined):AID2717, AID2721]; type: functional; conditions: Homo sapiens

Cn1nnnc1Sc1ncnc2scc(-c3ccc(F)cc3)c12
AC50 [1]: 26.6 µM (active)
AC50 [2]: 4.15 µM (active)
EC50 [3]: > 120 µM (not active)
AC50 [4]: 93 µM (active)
EC50 [5]: 5.32 µM (active)
AC50 [6]: 29.8 µM (active)
AC50 [7]: 36.4 µM (active)
AC50 [8]: 35.6 µM (active)
AC50 [9]: 8.1 µM (active)
EC50 [10]: 5.23 µM (active)
AC50 [11]: > 35 µM (active)
AC50 [12]: > 35 µM (active)
EC50 [13]: 0.116 µM (active)
EC50 [14]: 11.2 µM (active)
AC50 [15]: 28.6 µM (active)
AC50 [16]: 37.1 µM (active)
AC50 [17]: 39.7 µM (active)
AC50 [18]: 48 µM (active)
AC50 [19]: 44.6 µM (active)
AC50 [20]: 68.6 µM (active)

COc1cc2c(cc1OC)-c1cc(NCc3ccccc3F)nc(=O)n1CC2
IC50 [21]: > 80 µM (inactive)
IC50 [22]: > 80 µM (inactive)

CCO/C(O)=C1/C(C)=NC2(O)c3ccccc3C(=O)C12O (stereo not drawn)
AC50 [4]: 24 µM (active)
AC50 [23]: inconclusive
EC50 [14]: 18.1 µM (active)

Nc1nc(-c2cc(-c3ccccc3)no2)cs1
AC50 [24]: 144 µM (active)

O=C(NC(=S)Nc1ccc2oc(=O)ccc2c1)c1ccc(-c2cccc(Cl)c2Cl)o1
AC50 [25]: 39.2 µM (active)
AC50 [26]: 2.77 µM (active)
